According to PMC8490515, “Neuromedin B receptor stimulation of Cav3.2 T-type Ca^2+ channels in primary sensory neurons mediates peripheral pain hypersensitivity” (Theranostics, 2021):

Tests used:
[1] = test system: T-type channels in small TG neurons; assay: Whole-cell patch clamp of T-type channel currents (IT) in small TG neurons; assay type: cell-based, mouse
Cav3.2 (α1H) = assay: Cav3.2 channel currents in HEK293 cells coexpressing NmbR; assay type: cell-based, human
Method: Standard whole-cell recordings were made at room temperature (22-23 °C) as described previously, [25]. Recording electrodes were pulled from borosilicate glass microcapillary tubes (Sutter Instruments) and had resistances from 3 to 5 MΩ when filled with internal solution. Recordings were obtained using a MultiClamp 700B amplifier (Axon Instruments). Data were digitized on a personal computer using a Digidata 1440 interface under the control of the pClamp10.2 acquisition package (Molecular Devices). Data were acquired at 20 kHz with a low-pass Bessel filter at 2-5 kHz. Series resistance was compensated to 80%. The internal solution used for T-type channel current recordings contained 110 mM CsCl, 4 mM Mg-ATP, 0.3 mM Na2-GTP, 25 mM HEPES, and 10 mM EGTA, adjusted to pH 7.4 with CsOH; 295 mOsm. The external solution used for T-type channel current recordings contained 5 mM BaCl2, 140 mM TEA-Cl, 10 mM HEPES, 0.5 mM MgCl2, 5 mM CsCl, and 5.5 mM glucose, adjusted to pH 7.35 with TEA-OH; 305 mOsm. In experiments for Kv current recordings, the extracellular solution contained 140 mM choline-Cl, 1 mM MgCl2, 0.03 mM CaCl2, 5 mM KCl, 10 mM HEPES, and 10 mM glucose, adjusted to pH 7.4 with KOH; 310 mOsm. The intracellular pipette solution contained 140 mM KCl, 1 mM MgCl2, 0.5 mM CaCl2, 3 mM Mg-ATP, 0.3 mM Na2-GTP, 10 mM HEPES, and 5 mM EGTA, adjusted to pH 7.4 with KOH; 295 mOsm.

small TG neurons = assay: TG neuronal excitability (action potential firing, rheobase, threshold); assay type: cell-based, mouse
Method: All the procedures performed in this study were carried out in accordance with NIH guidelines and were approved by the Institutional Animal Care and Use Committee of Soochow University. TG neurons were dissociated as previously described, [23]. Briefly, TGs were harvested from 8- to 10-week-old ICR mice of either sex, cut into small pieces and treated with 2 mg/mL collagenase D (Roche) for 20 min followed by 1.5 mg/mL trypsin (Sigma) at 37 °C for 15 min. Cells were dissociated via gentle trituration with fire-polished sterilized Pasteur pipettes and centrifuged through a 15% BSA gradient to remove debris and nonneuronal cells. TG neurons were resuspended in neurobasal A (Thermo Fisher) supplemented with B27 (Thermo Fisher) and transferred onto Matrigel-coated coverslips. Patch clamp recordings were conducted 2 to 6 h after plating. In shRNA-treated knockdown experiments, TG cells were replated onto coverslips 48 h after infection.
Standard whole-cell recordings were made at room temperature (22-23 °C) as described previously, [25]. Recording electrodes were pulled from borosilicate glass microcapillary tubes (Sutter Instruments) and had resistances from 3 to 5 MΩ when filled with internal solution. Recordings were obtained using a MultiClamp 700B amplifier (Axon Instruments). Data were digitized on a personal computer using a Digidata 1440 interface under the control of the pClamp10.2 acquisition package (Molecular Devices). Data were acquired at 20 kHz with a low-pass Bessel filter at 2-5 kHz. Series resistance was compensated to 80%. The internal solution used for T-type channel current recordings contained 110 mM CsCl, 4 mM Mg-ATP, 0.3 mM Na2-GTP, 25 mM HEPES, and 10 mM EGTA, adjusted to pH 7.4 with CsOH; 295 mOsm. The external solution used for T-type channel current recordings contained 5 mM BaCl2, 140 mM TEA-Cl, 10 mM HEPES, 0.5 mM MgCl2, 5 mM CsCl, and 5.5 mM glucose, adjusted to pH 7.35 with TEA-OH; 305 mOsm. In experiments for Kv current recordings, the extracellular solution contained 140 mM choline-Cl, 1 mM MgCl2, 0.03 mM CaCl2, 5 mM KCl, 10 mM HEPES, and 10 mM glucose, adjusted to pH 7.4 with KOH; 310 mOsm. The intracellular pipette solution contained 140 mM KCl, 1 mM MgCl2, 0.5 mM CaCl2, 3 mM Mg-ATP, 0.3 mM Na2-GTP, 10 mM HEPES, and 5 mM EGTA, adjusted to pH 7.4 with KOH; 295 mOsm. The two kinetically distinct Kv currents in small TG neurons were separated by the two-step voltage protocol as previously described, [26]. The external solution for Nav current clamp recordings contained 2 mM KCl, 2 mM MgCl2, 25 mM HEPES, 2 mM CaCl2, 128 mM NaCl, and 30 mM glucose, adjusted to pH 7.4 with NaOH; 305 mOsm. The internal solution contained 10 mM NaCl, 110 mM KCl, 4 mM Mg-ATP, 0.3 mM Na2-GTP, 25 mM HEPES, and 2 mM EGTA, adjusted to pH 7.3 with KOH; 295 mOsm. Nmb was applied to a patched cell by an air-pressure microinjector (Pneumatic PicoPump, model PV830, WPI).
We next determined the role of the Nmb-induced T-type channel response in regulating TG neuronal excitability. […] Furthermore, application of Nmb (100 nM) to TG neurons decreased the peak amplitude of the transient outward K^+ channel currents (A-type currents or IA) (decrease of 22.3 ± 3.9%; Figure 6C), while the sustained delayed rectifier K^+ channel currents (IDR) remained unaffected (decrease of 1.9 ± 1.6%; Figure 6C). […] To further test this hypothesis, a shorter (1 ms) current injection was applied to avoid contaminating the action potential waveform with the stimulus. Neurons were manually hyperpolarized to membrane potentials of -75 mV to maximize the number of T-type channels available for activation. With increasingly stronger current injections (+200 pA), the threshold current necessary to evoke an overshooting AP was determined for each neuron in the presence or absence of Nmb.

PKA = PKA activity assay in TG cells (Pep Tag); assay type: cell-based, mouse; details: 100 nM Nmb, 30 min; triplicate
Method: PKA enzymatic activity in cell lysates was measured using the Pep Tag assay for nonradioactive detection of PKA (Promega, Madison, WI, USA) as described in our previous studies. Briefly, TG cells were cultured in 12-well plates and preincubated with BIM23042 (0.5 μM) or compound C (10 μM) followed by exposure to 100 nM Nmb for 30 min. TG cells were washed with ice-cold phosphate-buffered saline and placed on ice. PKA was extracted from the cell lysates with cold PKA extraction buffer (25 mM Tris-HCl, pH 7.4, 0.5 mM EDTA, 0.5 mM EGTA, 10 mM β-mercaptoethanol, 1 μg/mL leupeptin and 1 μg/mL aprotinin). The assay was conducted according to the manufacturer's instructions.

Compound | effect on forskolin-induced IT increase ([1]; 1 µM KT-5720 pretreatment, 10 μM forskolin, n = 6) | Nmb-induced increase in IT after KT-5720 ([1]; pretreatment 1 µM KT-5720, 100 nM Nmb, n = 7) | Nmb-induced increase of Cav3.2 currents after KT-5720 (Cav3.2 (α1H); pretreatment 1 µM KT-5720, 100 nM Nmb, n = 9) | effect on Nmb-mediated increase in AP firing rate / hyperexcitability (small TG neurons; pretreatment KT-5720 1 µM (n = 12) or NiCl2 50 μM (n = 11), 100 nM Nmb) | reversal of IT increase when Nmb removed by washing ([1]; 100 nM, washout) | increase of peak amplitude of IT by Nmb ([1]; 100 nM, mean ± SEM, n = 9) | current-voltage relationship curve of IT ([1]; 100 nM, n = 8) | depolarizing shift in steady-state inactivation ([1]; 100 nM, n = 9) | shift in activation properties ([1]; 100 nM, n = 9) | EC50 ([1]; sigmoidal Hill equation fit, small TG neurons, read-out: EC50 for IT increase) | Vhalf of activation ([1]; with 100 nM Nmb (control -47.1 ± 1.9 mV), n = 9) | Vhalf of steady-state inactivation ([1]; with 100 nM Nmb (control -80.1 ± 2.5 mV), n = 9) | increase of Cav3.2 channel currents (Cav3.2 (α1H); 100 nM Nmb, -110 mV to -30 mV, n = 9) | EC50 (Cav3.2 (α1H); sigmoidal dose-response fit, read-out: EC50 for increase of Cav3.2 channel currents) | PKA activity (PKA) | threshold current with Nmb (small TG neurons; 100 nM (control +0.98 nA)) | increase of action potential firing rate (small TG neurons; 100 nM, 5 mM 4-AP and 5 μM nifedipine, 1-s current injection, n = 17) | cells in which the threshold was significantly lowered (small TG neurons; 100 nM, 1 ms current injection, -75 mV) | resting membrane potential (small TG neurons; 100 nM, n = 17) | rheobase (vs nontreated) (small TG neurons; 100 nM, n = 17)
CCCCCCOC(=O)[C@]1(O)C[C@@H]2O[C@@]1(C)n1c3ccccc3c3c4c(c5c6ccccc6n2c5c31)C(=O)NC4 [KT-5720] | abrogated | 2.8 ± 2.9% | 1.9 ± 4.2% | blocked |  |  |  |  |  |  |  |  |  |  |  |  |  |  |  | 
Neuromedin B [Nmb] |  |  |  |  | partially reversed | 34.2 ± 1.9% | downward shifted the current-voltage relationship curve | ~ 7.3 mV | no significant shifts in activation properties | 0.0453 µM | -46.3 ± 2.2 mV | -72.8 ± 1.3 mV | 36.2 ± 3.1% | 0.0476 µM | increase in PKA activity | +0.79 nA | 43.7 ± 3.7% | 15 of 19 | not significantly changed | significantly lower
